One series deals with α (avr-14b) GluClRs (Haemonchus contortus, UniProt O46124). As to the kind of experiment: Two-electrode voltage clamp in oocytes, α GluClRs. As to conditions: for efficacy (maximal current normalised to saturating glutamate) compared to IVM: 30 nM, normalised to 5 mM glutamate. The class given is cell-based, H. contortus. Here is the method:
(§1) cDNAs encoding the α (avr-14b) (pcDNA 3.1+) or β (pUNIV) GluClR subunits of H. contortus were nuclear injected into oocytes (NASCO, WI USA) or transfected into HEK293AD cells (CellBank Australia) using a calcium phosphate-DNA co-precipitate method. Synapse formation between neurons and HEK293 cells was promoted by co-transfecting neuroligin 2A or 1B and the cDNA encoding CD4 surface antigen was also added to the transfection mixture so as to identify transfected cells. The oocytes and HEK cells were used for experiments 2–3 days after the introduction of the cDNAs. All experiments were done at room temperature (22 ± 1°C).
(§2) Xenopus laevis oocytes were harvested by surgical incision. The oocytes were then defolliculated with 1.5 mg/ml collagenase for 2 hours. Free oocytes were rinsed with calcium-free OR-2 solution containing (in mM) 82.5 NaCl, 2 KCl, 1 MgCl2, 5 HEPES, pH 7.4 and mature stage V or VI oocytes were isolated for experiments. The DNAs coding for α and β subunits were nuclear injected into the oocytes using a Nanoliter 2000 microinjector (WPI Inc) at a ratio of (α:β), 1:0, 0:1, 1:1 and 1:50. The total amount of injected DNA in all combinations was 400 ng ml^−1, including the 1:50 (α:β) combination (8 ng of DNA encoding the α and 392 ng of DNA encoding β subunits). Injected oocytes were incubated in ND96 storage solution (in mM) 96 NaCl, 2 KCl, 1 MgCl2.6H2O, 1.8 CaCl2, 5 HEPES, 50 μg ml^−1 gentamicin, 2.5 sodium pyruvate, 0.5 theophylline, pH 7.4 at 16°C for 2–3 days before experiment.
(§3) For the two-electrode voltage clamp recordings, each oocyte was secured in a cell bath that was continually perfused with ND96 recording solution (ND96 storage solution without pyruvate, theophylline and gentamicin). […] The two microelectrodes contained 3 M KCl and had resistances of 0.2–2 MΩ. Recordings were done using Clampex 10.2 software (Molecular Devices) at a clamped voltage of −40 mV. Currents were low-pass filtered at 200 Hz, sampled at 2 kHz using a Gene Clamp 500B amplifier and digitised by a Digidata 1440A interface. The IVM (IVM B1a) concentration-response experiments were standardised by using an application protocol that consisted of applying increasing concentrations of IVM for, respectively, 3 min, 3 min, 3 min, 2 min, 1 min, 1 min and 0.5 min.
(§4) Group data were analysed in SigmaPlot 13.0 using one-way ANOVAs, where p < 0.05 was taken as the significance threshold and expressed as mean ± SEM. Tests for normally distributed data are built into the SigmaPlot software. Confocal images were captured and analysed with Zen 2012 SP2 (Zeiss) software. Oocyte concentration-response data were fit to a Hill equation to obtain an EC50 and Hill co-efficient for each oocyte recording. These parameters were then averaged across multiple oocyte experiments of the same type. Single channel recordings were analysed in QuB software. […] The selected critical times eliminated periods of receptor desensitisation while retaining singe receptor active periods. Mean active period duration and intra-activation open probability was estimated from each patch. Group means were obtained by averaging across multiple patches for each recording condition.
On the technique in general: Two-electrode voltage clamp is typically applied to oocytes expressing channels or transporters.

Another series addresses αβ (1:50) GluClRs (Haemonchus contortus, UniProt O46124+P91730). Briefly: Two-electrode voltage clamp in oocytes, αβ (1:50) GluClRs. The class given is cell-based, H. contortus. As to conditions: 30 nM; for efficacy (maximal current normalised to saturating glutamate) compared to IVM: normalised to 5 mM glutamate, αβ 1:50; for differential efficacy between α and αβ (1:50) GluClRs: α versus αβ (1:50). On the procedure:
as §1, §2, §3, §4

Series [1] has as its system Untransfected HEK293 cells. As to the kind of experiment: Membrane partitioning, time-lapse fluorescence. As to conditions: 500 nM; for membrane accumulation time constant: change in membrane fluorescence over 30 min, exponential fit. On the procedure: Two types of experiments were conducted with IVM-bdpy. The first was aimed at monitoring the time-course of membrane accumulation. Untransfected HEK293 cells were incubated in extracellular solution containing 500 nM IVM-bdpy and time-lapse images were taken over a period of 30 min (Fig 8A). The change in total membrane fluorescence averaged from 5 repeat experiments was then plotted against time and fitted to a standard exponential function (Fig 8B). In a control experiment, the corresponding accumulation rate was also determined for bdpy. To obtain the net membrane partitioning time-course for IVM-1, the data for the bdpy alone was subtracted from the data obtained for IVM-bdpy (Fig 8B). The time constants for the three plots were 6.5 min for the IVM-bdpy, 8.2 min for the bdpy fluorophore and 6.0 min for IVM-1. As the lipophilic properties of IVM and IVM-1 are similar (logPs of 5.4 and 5.1, respectively), we infer this analysis quantitatively reflects the membrane partitioning properties of IVM. […] It should be noted, however, that the IVM-bdpy experiment was done using a 100-fold higher concentration of drug in un-transfected cells and represents passive membrane accumulation, whereas the current plateau involved IVM binding to and activating receptors.
(§5) Membrane partitioning and FRAP experiments were performed on an LSM 710 inverted 2-photon confocal microscope equipped with a 40X water immersion objective lens (1.2 NA/280 μM WD/0.208 μM/pixel and a GFP/Alexa 488 filter set. Untransfected HEK293 cells at a confluency of 50–75% were plated onto 35-mm glass bottom dishes one day prior to experiments. The IVM-bdpy fluorophore was dissolved in 100% DMSO and stored at ‐20°C at a concentration of 24 mM.
(§6) A Mai Tai eHP 2-photon laser/760-1040 nm was used as an excitation source (power at 920 nm) for the FRAP experiments. The laser and bleaching power were set to 7% and 75% respectively. Membrane partitioning images were taken for 35 min at 0.5 Hz after replacing the cell medium (extracellular solution) with one containing the IVM-bdpy probe at a concentration of 500 nM. FRAP images were taken at a frequency of 0.5 Hz for 10 min after a 30 min equilibration period in 500 nM IVM-bdpy.

The test system of series [2] is Untransfected HEK293 cells. Briefly: Fluorescence recovery after photobleaching (FRAP), lateral membrane diffusion. Here is the method: The second experiment was aimed at determining the lateral membrane diffusion properties of IVM using the fluorescence recovery after photobleaching (FRAP) technique. After a 30-min equilibration time, 5 cells were monitored for fluorescence recovery within a bleached circular patch of membrane of 3.7 μm diameter (Fig 8C). Any bleaching and recovery of the surrounding area of the cell was measured, using a similar circular patch and used to correct the recovery rate of the membrane delineated by the bleached area. We also noted that the recovery reached 98 ± 2% of control. The time constant (τ) for recovery of 1.3 minutes was used to calculate the diffusion coefficient (D), using the radius (r) of the bleached patch, according to D = r^2/4τ. The calculated value of D was 1.1 x 10^−2 μm^2s^−1. Over the course of 1 s, the IVM-bdpy probe would traverse 0.2 μm along the membrane surface (lateral diffusion rate of 0.2 μms^−1). […] We infer that this slow lateral diffusion rate coupled to membrane partitioning are the major contributors to local increases of IVM around its target binding sites and the slow quasi-irreversible actions of IVM at GluClRs.
as §5, §6

For the next series, the system named is α GluClRs. Briefly: IPSC recording in HEK293-neuron heteroculture, α GluClRs. The class given is cell-based, H. contortus. As to conditions: HEK293-neuron co-culture, −70 mV. Here is the method: as §1
Primary neuronal cultures were prepared from cortices of E18 rat embryos, (University of Queensland Biological Services), which were triturated and plated at 100,000 cells per 18-mm poly-D-lysine-coated coverslip in DMEM with 10% fetal bovine serum. After 24 h the entire medium was replaced with Neurobasal medium that included 2% B27 and 1% GlutaMAX supplements. After one week half of this medium was replaced and the neurons were allowed to grow in vitro for 3–5 weeks before introducing the transfected HEK293 cells. Recordings of synaptic currents were done in whole-cell configuration at ‐70 mV using an Axopatch 200B amplifier (Molecular Devices), filtered at 5 kHz and digitized at 20 kHz using Clampex (pClamp 10 suite, Molecular Devices) via a Digidata 1440A digitizer.

Sequence of αβ (1:50) GluClRs (O46124 entry or part of it): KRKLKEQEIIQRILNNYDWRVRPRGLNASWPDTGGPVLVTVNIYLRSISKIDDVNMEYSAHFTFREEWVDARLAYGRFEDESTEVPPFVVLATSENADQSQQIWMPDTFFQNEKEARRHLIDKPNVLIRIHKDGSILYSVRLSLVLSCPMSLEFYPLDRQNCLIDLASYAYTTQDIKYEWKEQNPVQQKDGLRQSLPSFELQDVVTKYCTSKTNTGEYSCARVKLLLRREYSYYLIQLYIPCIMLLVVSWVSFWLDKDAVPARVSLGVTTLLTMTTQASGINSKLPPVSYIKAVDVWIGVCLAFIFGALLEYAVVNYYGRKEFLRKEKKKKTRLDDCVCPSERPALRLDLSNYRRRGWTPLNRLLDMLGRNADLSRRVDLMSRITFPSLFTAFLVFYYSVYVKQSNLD
Sequence of αβ (1:50) GluClRs (P91730 19-432): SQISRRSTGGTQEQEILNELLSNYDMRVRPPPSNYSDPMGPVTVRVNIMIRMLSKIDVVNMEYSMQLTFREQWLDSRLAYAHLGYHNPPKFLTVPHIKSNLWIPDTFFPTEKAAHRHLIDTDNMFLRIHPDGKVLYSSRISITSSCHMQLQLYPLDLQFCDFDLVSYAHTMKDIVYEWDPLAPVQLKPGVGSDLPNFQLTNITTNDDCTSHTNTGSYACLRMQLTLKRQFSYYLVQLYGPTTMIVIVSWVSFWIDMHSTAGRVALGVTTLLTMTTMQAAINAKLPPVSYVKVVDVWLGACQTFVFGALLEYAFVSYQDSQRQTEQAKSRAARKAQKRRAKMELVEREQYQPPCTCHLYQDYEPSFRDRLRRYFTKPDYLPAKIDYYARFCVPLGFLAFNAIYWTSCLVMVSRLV
Sequence of α (avr-14b) GluClRs (O46124 entry or part of it): as the sequence (O46124 entry or part of it) above

Take `CC[C@H](C)[C@H]1O[C@]2(CC[C@@H]1C)C[C@@H]1C[C@@H](C/C=C(\C)[C@@H](OCOC)[C@@H](C)/C=C/C=C3\CO[C@@H]4[C@H](O)C(C)=C[C@@H](C(=O)O1)[C@]34O)O2` [IVM-2]: the figures for the “efficacy (maximal current normalised to saturating glutamate) compared to IVM” value at α (avr-14b) GluClRs and on αβ (1:50) GluClRs were “restored efficacy” and “preservation of efficacy”, respectively. Moreover, the “differential efficacy between α and αβ (1:50) GluClRs” value at αβ (1:50) GluClRs is “abolished the differential sensitivity”.
On to `CC[C@H](C)[C@H]1O[C@]2(CC[C@@H]1C)C[C@@H]1C[C@@H](C/C=C(\C)[C@@H](OCOC)[C@@H](C)/C=C/C=C3\CO[C@@H]4[C@@H](O)C(C)=C[C@@H](C(=O)O1)[C@]34O)O2` [IVM-3], for which the “efficacy (maximal current normalised to saturating glutamate) compared to IVM” value on α (avr-14b) GluClRs is “most marked reduction in potency”. In addition, at αβ (1:50) GluClRs, the “efficacy (maximal current normalised to saturating glutamate) compared to IVM” value was “most marked reduction in potency”; the “differential efficacy between α and αβ (1:50) GluClRs” value was “ablated the differential efficacy”.
For `CCC1=C(C)C2=C(c3ccc(OCc4cn(CCCC(=O)O[C@@H]5/C(C)=C/C[C@@H]6C[C@@H](C[C@]7(CC[C@H](C)[C@@H]([C@@H](C)CC)O7)O6)OC(=O)[C@@H]6C=C(C)[C@@H](O)[C@H]7OC/C(=C\C=C\[C@@H]5C)[C@]76O)nn4)cc3)c3c(C)c(CC)c(C)n3[B-](F)(F)[N+]2=C1C` [IVM-bdpy], the “potency relative to IVM” value at α (avr-14b) GluClRs (concentration-response, n = 6) is reported as “reduced potency”. The “activity at α GluClRs” value on α (avr-14b) GluClRs (oocyte current) is given as “active”. Moreover, in series [1], the “time to saturate whole cell membranes” value was “about 18 minutes” and the “membrane accumulation time constant” value amounted to 6.5 min. The “FRAP recovery time constant (τ)” value in series [2] (500 nM, 30 min equilibration) amounted to 1.3 min. The “diffusion coefficient (D)” value in series [2] (calculated by D = r^2/4τ) is on record as 1.1 x 10^−2 μm^2s^−1. The molecule also came in with a lateral diffusion rate in series [2] (in cell membrane) of 0.2 μms^−1.
For the molecule `C#CCOc1ccc(C2=C3C(C)=C(CC)C(C)=[N+]3[B-](F)(F)n3c(C)c(CC)c(C)c32)cc1` [bdpy], the “membrane accumulation time constant” value in series [1] was determined as 8.2 min.
As for picrotoxin, the “effect on IPSCs” value in the series on α GluClRs was “blocked”.
